Results published in US9187465B2, “Oxazole tyrosine kinase inhibitors” (Sareum Limited, priority 2007, dated 2015).

How the values were obtained:
[1] = test system: SW620, HCT-116, Colo205, A549, Calu-6 or HL-60 tumour xenografts; conditions: cited from earlier work
[2] = test system: HCT116 cells; assay: Anti-proliferative activity, Alamar Blue assay, HCT116; format: cell-based; conditions: Homo sapiens, HCT-116, 72 hours, read-out: cell proliferation IC50
Experimental: (§1) The anti-proliferative activities of compounds of the invention are determined by measuring the ability of the compounds to inhibition of cell growth in a number of cell lines. Inhibition of cell growth is measured using the Alamar Blue assay (Nociari et al., Journal of Immunological Methods (1998) 213, 157-167). The method is based on the ability of viable cells to reduce resazurin to its fluorescent product resorufin. For each proliferation assay cells are plated onto 96 well plates and allowed to recover for 16 hours prior to the addition of inhibitor compounds for a further 72 hours. At the end of the incubation period 10% (v/v) Alamar Blue is added and incubated for a further 6 hours prior to determination of fluorescent product at Excitation 535 nm and Emission 590 nm. In the case of the non-proliferating cell assay cells are maintained at confluence for 96 hour prior to the addition of inhibitor compounds for a further 72 hours. The number of viable cells is determined by Alamar Blue assay as before. All cell lines are obtained from ECACC (European Collection of cell Cultures).

[3] = biological target: T1, human FLT3 (Homo sapiens, UniProt P36888); assay: FLT3 kinase assay (DELFIA enzyme inhibition); format: biochemical
T1 construct: a construct expressing the human FLT3 (564-993) with an amino terminal GST tag; host or cells: Sf9 insect cells (baculovirus)
T1 sequence (P36888 564-993): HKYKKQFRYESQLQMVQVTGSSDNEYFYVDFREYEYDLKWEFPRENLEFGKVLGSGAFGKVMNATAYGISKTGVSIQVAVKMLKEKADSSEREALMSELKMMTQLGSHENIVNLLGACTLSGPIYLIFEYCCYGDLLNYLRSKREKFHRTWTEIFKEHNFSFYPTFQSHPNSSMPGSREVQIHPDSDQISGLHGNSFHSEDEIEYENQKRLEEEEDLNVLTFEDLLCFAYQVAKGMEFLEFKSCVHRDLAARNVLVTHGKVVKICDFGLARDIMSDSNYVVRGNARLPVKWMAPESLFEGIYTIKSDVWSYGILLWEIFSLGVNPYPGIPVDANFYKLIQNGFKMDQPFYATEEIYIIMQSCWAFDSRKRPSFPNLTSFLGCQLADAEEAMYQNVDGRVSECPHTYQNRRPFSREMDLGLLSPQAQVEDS
Method in brief: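 GST-tagged human FLT3 (564-993), expressed in sf9 cells, phosphorylated a biotinylated Gastrin Precursor (Tyr 87)-derived peptide for 30 min at room temperature before EDTA stop. The captured peptide was detected by Eu-labelled anti-phosphotyrosine DELFIA time-resolved fluorescence. IC50 was derived from % inhibition curves.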

[4] = test system: A549 human lung carcinoma cells; assay: Anti-proliferative activity, Alamar Blue assay, A549; format: cell-based; conditions: A549, 72 h, read-out: cell growth IC50
Experimental: as §1

[5] = biological target: T2, human FLT4 (Homo sapiens, UniProt P35916); assay: FLT4 kinase assay (DELFIA enzyme inhibition); format: biochemical; conditions: read-out: FLT4 IC50
T2 construct: a construct expressing the human FLT4 (789-1207) with an amino terminal GST tag; host or cells: Sf9 insect cells (baculovirus)
Method in brief: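 GST-tagged human FLT4 (789-1207) from Sf9 cells phosphorylates a biotinylated MET (Tyr1253)-derived peptide for 30 min at room temperature, stopped with EDTA. Phosphopeptide is captured on Neutravidin and detected with Eu-labelled anti-phosphotyrosine antibody by time-resolved fluorescence; IC50 from % inhibition curves.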

[6] = biological target: T3, human Aurora A (Homo sapiens, UniProt O14965); assay: Aurora A kinase assay (DELFIA enzyme inhibition); format: biochemical; conditions: read-out: Aurora A IC50
T3 construct: Histidine tag (N); host or cells: Sf9 insect cells (baculovirus)
T3 sequence (O14965 1-403): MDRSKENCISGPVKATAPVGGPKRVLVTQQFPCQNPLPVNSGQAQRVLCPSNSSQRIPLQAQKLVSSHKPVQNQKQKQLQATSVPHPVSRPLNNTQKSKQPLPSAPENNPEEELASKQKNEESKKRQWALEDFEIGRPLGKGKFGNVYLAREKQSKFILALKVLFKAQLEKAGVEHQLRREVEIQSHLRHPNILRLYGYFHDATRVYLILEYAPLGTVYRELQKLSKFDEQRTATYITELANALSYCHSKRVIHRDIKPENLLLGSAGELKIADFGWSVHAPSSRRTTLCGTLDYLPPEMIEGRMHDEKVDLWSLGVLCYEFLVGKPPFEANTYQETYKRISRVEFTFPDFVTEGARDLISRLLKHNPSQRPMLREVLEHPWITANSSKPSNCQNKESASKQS
Method in brief: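 DELFIA read-out (time-resolved Eu fluorescence, 620 nm emission) after Neutravidin capture of biotinylated peptide substrate and antibody detection. Reaction: Ni-agarose-purified Aurora A, 30 min at room temperature, stopped with 100 mM EDTA.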

[7] = test system: treatment-refractory primary Acute Myelogenous Leukemia (AML) cells; conditions: treatment-refractory cells from patients; cited from earlier work

T2 sequence (P35916 789-1207): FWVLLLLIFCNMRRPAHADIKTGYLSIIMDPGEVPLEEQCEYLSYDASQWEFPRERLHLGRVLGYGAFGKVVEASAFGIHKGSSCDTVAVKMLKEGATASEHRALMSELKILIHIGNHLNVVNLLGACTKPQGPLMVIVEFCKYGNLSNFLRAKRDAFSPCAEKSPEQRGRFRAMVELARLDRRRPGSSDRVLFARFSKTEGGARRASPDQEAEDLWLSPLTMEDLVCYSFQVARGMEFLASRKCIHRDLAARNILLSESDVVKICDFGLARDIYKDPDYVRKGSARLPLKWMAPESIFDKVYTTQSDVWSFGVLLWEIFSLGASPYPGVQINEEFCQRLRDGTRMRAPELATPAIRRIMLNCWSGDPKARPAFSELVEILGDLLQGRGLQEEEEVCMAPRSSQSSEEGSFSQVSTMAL

Structure (SMILES) | complete tumour regression (animals) ([1]; HL-60 xenograft) | inhibition of tumour growth ([1]; dosed over 48 h via sub-cutaneous mini-pump infusion, all xenograft models) | IC50 [2] [µM] | IC50 [3] [µM] | IC50 [4] [µM] | IC50 [5] [µM] | IC50 [6] [µM] | killing of primary AML cells [7]
CCN(CCCOc1ccc2c(Nc3cc(CC(=O)Nc4cccc(F)c4)n[nH]3)ncnc2c1)CCOP(=O)(O)O [AZD1152] | 8 of 11 | 55% to 100 | – | – | – | – | – | –
NC(=O)c1nc(Nc2c(F)cccc2F)oc1-c1ccc(N2CCNCC2)cc1 [Example R-13, 2-(2,6-difluorophenylamino)-5-(4-(piperazin-1-yl)phenyl)oxazole-4-carboxamide] | – | – | < 10 | < 10 | < 10 | < 10 | < 10 | –
Cc1cc(Nc2cc(N3CCN(C)CC3)nc(Sc3ccc(NC(=O)C4CC4)cc3)n2)n[nH]1 [VX-680] | – | – | – | – | – | – | – | potently killed
NC(=O)c1nc(-c2c(F)cccc2Cl)oc1-c1ccc(N2CCNCC2)cc1 [Example G-5, 2-(2-chloro-6-fluorophenyl)-5-(4-(piperazin-1-yl)phenyl)oxazole-4-carboxamide] | – | – | < 10 | < 10 | < 10 | < 10 | < 10 | –
NC(=O)c1nc(-c2c(F)cccc2Cl)oc1Nc1ccc(N2CCNCC2)cc1 [Example Q-36, 2-(2-chloro-6-fluorophenyl)-5-(4-(piperazin-1-yl)phenylamino)oxazole-4-carboxamide] | – | – | < 10 | < 10 | < 10 | < 10 | < 10 | –
CN1CCN(C(=O)c2ccc(Nc3oc(-c4c(F)cccc4F)nc3C(N)=O)cc2)CC1 [Example Q-14, 2-(2,6-difluorophenyl)-5-(4-(4-methylpiperazine-1-carbonyl)phenylamino) oxazole-4-carboxamide] | – | – | < 10 | < 10 | < 10 | < 10 | < 10 | –
NC(=O)c1nc(-c2cccc3[nH]ncc23)oc1-c1ccc(N2CCNCC2)cc1 [Example M-17, 2-(1H-indazol-4-yl)-5-(4-(piperazin-1-yl)phenyl)oxazole-4-carboxamide] | – | – | < 10 | < 10 | < 10 | < 10 | < 10 | –
CS(=O)(=O)c1ccc(Nc2oc(-c3c(F)cccc3F)nc2C(N)=O)cc1 [Example Q-3, 2-(2,6-difluorophenyl)-5-(4-(methylsulfonyl)phenylamino)oxazole-4-carboxamide] | – | – | < 10 | < 10 | < 10 | < 10 | < 10 | –
NC(=O)c1nc(-c2cccc3[nH]ccc23)oc1-c1ccc(N2CCNCC2)cc1 [Example M-12, 2-(1H-indol-4-yl)-5-(4-(piperazin-1-yl)phenyl)oxazole-4-carboxamide] | – | – | < 10 | < 10 | < 10 | < 10 | < 10 | –
NC(=O)c1nc(-c2c(F)cccc2F)oc1Nc1ccc(N2CCNCC2)cc1 [Example Q-11, 2-(2,6-difluorophenyl)-5-(4-(piperazin-1-yl)phenylamino)oxazole-4-carboxamide] | – | – | < 10 | < 10 | < 10 | < 10 | < 10 | –
